Test results reported in patent publication US20140127158A1, “COMBINATION THERAPY FOR HEPATITIS C VIRUS INFECTION” (National Health Research Institute, priority 2012, published 2014).

Assays:
Type in all cases: cell-based, Hepatitis C virus
[1] = tested on: Infectious HCV, Genotype 2a, JFH1; test: Small molecule inhibition of HCV infectivity (luciferase)
From the text: (5) Small molecule inhibition of HCV infectivity. To quantify the inhibitory effect of DBPR110 on HCV particle formation, HCV replication in DBPR110-treated and untreated cells was quantified using a luciferase activity assay, as described previously. See, e.g., Wakita et al., Nat Med 11:791-6 (2005); and Zhang et al., Antimicrob Agents Chemother 52:666-74 (2008). In vitro-transcribed RNA derived from full-length HCV2a JFH1 infectious cDNA clone with the luciferase reporter gene was delivered to Huh-7.5 cells by electroporation. The cells were seeded at 1×10^5 cells per well in 12-well plates and incubated for 4 h. The medium was then aspirated and replaced with 1 mL of complete medium containing DBPR110 in serial concentration. The plates with compounds were incubated for 72 h and the medium were then used to infect Huh-7.5 cells. Huh-7.5 cells were seeded in 12-well plates (1×10^5 cells/well) in DMEM with 10% FBS for 24 h before infection. The HCV cell culture (HCVcc)-containing supernatant per well was added to the Huh-7.5 cells. After 72 h of incubation at 37° C., the total cell lysate was assayed for luciferase expression (Promega).

[2] = tested on: HCV genotype 2a replicon (JFH1); test: Inhibitory assay for HCV replicons (luciferase), genotype 2a JFH1
Description: (2) Cell culture and HCV inhibitors. Huh-7.5 cells and their derivative HCV replicon cell lines were maintained in Dulbecco's modified Eagle's medium (DMEM, Gibco/BRL) that was supplemented with 100 U/mL penicillin-streptomycin (Gibco/BRL), 0.1 mM nonessential amino acid (NEAA, Gibco/BRL) and 10% fetal bovine serum (FBS) heat inactivated at 37° C. in 5% CO2. The HCV replicon cell lines were isolated from colonies as described in Lohman et al., Science 285:110-3 (1999). The culture medium for the replicon cells was additionally supplemented with 0.25 to 0.5 mg/mL of G418, unless specified otherwise. Compound DBPR110 and sofosbuvir were synthesized at the Institute of Biotechnology and Pharmaceutical Research at the National Health Research Institutes in Taiwan. Telaprevir (Lin et al., Antimicrob Agents Chemother, 50:1813-22 (2006)) was purchased from Acme Biosciences (Belmont, Calif.). The compounds were stored at −20° C. as 10 to 500 mM dimethyl sulfoxide (DMSO) stock solutions until the assay. IFN-α was purchased from Calbiochem (La Jolla, Calif.) and stored at −80° C.
(3) Inhibitory assay for HCV replicons. Cells were seeded at 1×10^4 (high-throughput screening assay) or 1×10^5 (regular assay) cells/well in 96- or 12-well plate, respectively, and incubated for 4 h. The medium was then aspirated and replaced with 0.1 (96-well plate) or 1 (12-well plate) mL of complete medium containing a single compound or combinations of compounds in serial concentration(s). The plates with compounds were incubated for 72 h and then assayed for luciferase expression (Promega). The EC50 of each compound was determined independently and used to determine the range of concentrations used for the combination experiments. All data are presented as the means±standard deviations (SD) from three independent experiments. The selectivity index (SI) was calculated as the ratio of the CC50 to the EC50.

[3] = tested on: genotype 2a HCV replicon with NS5A amino acid substitutions; test: Transient replicon assay, genotype 2a NS5A amino acid substitutions; conditions: for EC50 / EC90: Hepatitis C virus
[4] = tested on: genotype 1b HCV replicon with NS5A amino acid substitutions; test: Transient replicon assay, genotype 1b NS5A amino acid substitutions; conditions: for EC50 / EC90: Hepatitis C virus
[5] = Hepatitis C virus, JFH1 replicon cell line
[6] = genotype 1b NS5A V153M + M202L + M265V
[7] = genotype 1b NS5A Y93H + V153M + M202L + M265V
[8] = genotype 1b NS5A Y93N + V153M + M202L + M265V

O=C(N[C@@H](C(=O)N1CCC[C@H]1c1ncc(-c2ccc(-c3ccc(-c4cnc([C@@H]5CCCN5C(=O)[C@H](NC(=O)C5CC5)c5ccccc5)s4)cc3)cc2)s1)c1ccccc1)C1CC1 [DBPR110]
Selective index ([1]; CC50/EC50, Infectious HCV, Genotype 2a, JFH1): >720,461 | EC50 ([1]; Hepatitis C virus, read-out: Luciferase activity assay EC50): 0.0183 nM | EC90 ([1]; Hepatitis C virus, read-out: Luciferase activity assay EC90): 0.258 ± 0.0502 nM | Selective index ([2]; CC50/EC50, JFH1): >173,130 | EC50 [2, 5]: 0.229 nM | EC90 [2, 5]: 0.465 ± 0.0966 nM | EC50 ([3]; genotype 2a NS5A P58L): 53 nM | EC90 ([3]; genotype 2a NS5A P58L): 89.3 nM | EC50 ([3]; genotype 2a NS5A Parental): 0.25 ± 0.032 nM | EC90 ([3]; genotype 2a NS5A Parental): 0.592 ± 0.07 nM | EC50 ([3]; genotype 2a NS5A T24A): 16.2 nM | EC90 ([3]; genotype 2a NS5A T24A): 63.5 nM | EC50 ([3]; genotype 2a NS5A Y93H): 760 nM | EC90 ([3]; genotype 2a NS5A Y93H): > 5000 nM | EC50 ([3]; genotype 2a NS5A Y93N): 51.8 nM | EC90 ([3]; genotype 2a NS5A Y93N): 85.2 nM | Fold resistance (EC50) ([3]; genotype 2a NS5A P58L): 212 fold | Fold resistance (EC90) ([3]; genotype 2a NS5A P58L): 151 fold | Fold resistance (EC50) ([3]; genotype 2a NS5A Parental): 1 fold | Fold resistance (EC90) ([3]; genotype 2a NS5A Parental): 1 fold | Fold resistance (EC50) ([3]; genotype 2a NS5A T24A): 65 fold | Fold resistance (EC90) ([3]; genotype 2a NS5A T24A): 107 fold | Fold resistance (EC50) ([3]; genotype 2a NS5A Y93H): 3,041 fold | Fold resistance (EC90) ([3]; genotype 2a NS5A Y93H): >8,446 fold | Fold resistance (EC50) ([3]; genotype 2a NS5A Y93N): 207 fold | Fold resistance (EC90) ([3]; genotype 2a NS5A Y93N): 144 fold | EC50 ([4]; genotype 1b NS5A M202L): 0.0021 ± 0.0006 nM | EC90 ([4]; genotype 1b NS5A M202L): 0.005 ± 0.0014 nM | EC50 ([4]; genotype 1b NS5A M265V): 0.002 ± 0.0009 nM | EC90 ([4]; genotype 1b NS5A M265V): 0.0051 ± 0.0017 nM | EC50 ([4]; genotype 1b NS5A P58L): 0.564 ± 0.194 nM | EC90 ([4]; genotype 1b NS5A P58L): 2.73 ± 0.909 nM | EC50 ([4]; genotype 1b NS5A P58S): 0.038 ± 0.014 nM | EC90 ([4]; genotype 1b NS5A P58S): 0.064 ± 0.011 nM | EC50 ([4]; genotype 1b NS5A P58T): 0.243 ± 0.04 nM | EC90 ([4]; genotype 1b NS5A P58T): 1.3 ± 0.219 nM | EC50 ([4]; genotype 1b NS5A Parental): 0.0015 ± 0.0006 nM | EC90 ([4]; genotype 1b NS5A Parental): 0.0042 ± 0.0021 nM | EC50 ([4]; genotype 1b NS5A V153M): 0.0013 ± 0.0005 nM | EC90 ([4]; genotype 1b NS5A V153M): 0.0041 ± 0.0019 nM | EC50 [4, 6]: 0.0011 ± 0.0005 nM | EC90 [4, 6]: 0.0031 ± 0.0011 nM | EC50 ([4]; genotype 1b NS5A Y93C): 0.078 ± 0.04 nM | EC90 ([4]; genotype 1b NS5A Y93C): 0.177 ± 0.062 nM | EC50 ([4]; genotype 1b NS5A Y93H): 1.41 nM | EC90 ([4]; genotype 1b NS5A Y93H): 7.34 nM | EC50 [4, 7]: 8.74 nM | EC90 [4, 7]: 37.7 nM | EC50 ([4]; genotype 1b NS5A Y93N): 3.82 nM | EC90 ([4]; genotype 1b NS5A Y93N): 13.3 nM | EC50 [4, 8]: 27.3 nM | EC90 [4, 8]: 98.9 nM | Fold resistance (EC50) ([4]; genotype 1b NS5A M202L): 1 fold | Fold resistance (EC90) ([4]; genotype 1b NS5A M202L): 1 fold | Fold resistance (EC50) ([4]; genotype 1b NS5A M265V): 1 fold | Fold resistance (EC90) ([4]; genotype 1b NS5A M265V): 1 fold | Fold resistance (EC50) ([4]; genotype 1b NS5A P58L): 376 fold | Fold resistance (EC90) ([4]; genotype 1b NS5A P58L): 650 fold | Fold resistance (EC50) ([4]; genotype 1b NS5A P58S): 25 fold | Fold resistance (EC90) ([4]; genotype 1b NS5A P58S): 15 fold | Fold resistance (EC50) ([4]; genotype 1b NS5A P58T): 162 fold | Fold resistance (EC90) ([4]; genotype 1b NS5A P58T): 310 fold | Fold resistance (EC50) ([4]; genotype 1b NS5A Parental): 1 fold | Fold resistance (EC90) ([4]; genotype 1b NS5A Parental): 1 fold | Fold resistance (EC50) ([4]; genotype 1b NS5A V153M): 1 fold | Fold resistance (EC90) ([4]; genotype 1b NS5A V153M): 1 fold | Fold resistance (EC50) [4, 6]: 1 fold | Fold resistance (EC90) [4, 6]: 1 fold | Fold resistance (EC50) ([4]; genotype 1b NS5A Y93C): 52 fold | Fold resistance (EC90) ([4]; genotype 1b NS5A Y93C): 42 fold | Fold resistance (EC50) ([4]; genotype 1b NS5A Y93H): 939 fold | Fold resistance (EC90) ([4]; genotype 1b NS5A Y93H): 1,747 fold | Fold resistance (EC50) [4, 7]: 5,824 fold | Fold resistance (EC90) [4, 7]: 8,979 fold | Fold resistance (EC50) ([4]; genotype 1b NS5A Y93N): 2,547 fold | Fold resistance (EC90) ([4]; genotype 1b NS5A Y93N): 3,168 fold | Fold resistance (EC90) [4, 8]: 23,550 fold
